{"source": "patent US10555951B2", "about": "“Targeted treatment of leiomyosarcoma” (Eli Lilly and Company, priority 2015, dated 2020)", "key": {"leiomyosarcoma tumor [1]": {"test_system": "leiomyosarcoma tumor", "experiment": "Clinical evaluation: leiomyosarcoma patients, cycle 1, CT scan and DCE-US (Table 2)", "assay_type": "in vivo, human", "source_text": "A study of 4,4,4-Trifluoro-N-[(1S)-2-[[(7S)-5-(2-hydroxyethyl)-6-oxo-7H-pyrido[2,3-d][3]benzazepin-7-yl]amino]-1-methyl-2-oxo-ethyl]butanamide hydrate in patients with advanced or metastatic cancer.\n(§1) This study is a multicenter, nonrandomized, open-label, dose-escalation study followed by cohort expansion of oral dosed 4,4,4-trifluoro-N-[(1S)-2-[[(7S)-5-(2-hydroxyethyl)-6-oxo-7H-pyrido[2,3-d][3]benzazepin-7-yl]amino]-1-methyl-2-oxo-ethyl]butanamide hydrate in outpatients with advanced or metastatic cancer.\n(§2) 4,4,4-Trifluoro-N-[(1S)-2-[[(7S)-5-(2-hydroxyethyl)-6-oxo-7H-pyrido[2,3-d][3]benzazepin-7-yl]amino]-1-methyl-2-oxo-ethyl]butanamide hydrate, dose range 2.5 to 100 mg, given orally as capsules 3 times per week during a 28-day cycle.\n(§3) 4,4,4-Trifluoro-N-[(1S)-2-[[(7S)-5-(2-hydroxyethyl)-6-oxo-7H-pyrido[2,3-d][3]benzazepin-7-yl]amino]-1-methyl-2-oxo-ethyl]butanamide hydrate will be administered orally TIW during both the dose-escalation phase (Part A) and the dose-confirmation phase (Part B).\n(§4) Efficacy: Depending on the histology, efficacy will be assessed using Response Evaluation Criteria in Solid Tumors (RECIST) v1.1 for solid tumors, the Revised Criteria for Malignant Lymphoma, the Guidelines from the National Cancer Institute Working Group for CLL, or the Response Assessment in Neuro-Oncology (RANO) criteria for glioblastoma. Each patient will be assessed by 1 or more of the following radiologic tests for tumor measurement: X-ray computerized tomography (CT) scan; magnetic resonance imaging (MRI); chest X-ray; PET scan; PET/CT imaging Standardized Uptake Values (SUVMAX).\nData on 3 patients having leiomyosarcoma administered 4,4,4-trifluoro-N-[(1S)-2-[[(7S)-5-(2-hydroxyethyl)-6-oxo-7H-pyrido[2,3-d][3]benzazepin-7-yl]amino]-1-methyl-2-oxo-ethyl]butanamide hydrate in cycle 1 of an ongoing clinical trial are presented in Table 2. Patient 1 was previously treated for leiomyosarcoma with surgery, radiation therapy and 5 prior regimens of systemic therapeutic or targeted therapies. Patient 2 was previously treated for leiomyosarcoma with surgery, radiation therapy, brachytherapy and 3 prior regimens of systemic therapeutic or targeted therapies. Patient 3 was previously treated for leiomyosarcoma with surgery and 3 prior regimens of systemic therapeutic or targeted therapies."}, "leiomyosarcoma tumor [2]": {"test_system": "leiomyosarcoma tumor", "experiment": "Clinical evaluation Part B: leiomyosarcoma patients, RECIST, tumor size, PET/CT SUVmax (Table 3)", "assay_type": "in vivo, human", "source_text": "PET/CT imaging of cancer with combined positron emission tomography (PET) and X-ray computerized tomography (CT) scanners has become a standard component of diagnosis and staging in oncology. The use of the radiolabeled tracer 2-deoxy-2-[^18F]fluoro-D-glucose (FDG) is used for the majority of all PET/CT imaging procedures. One of the advantages of PET/CT imaging is its ability to detect, very early during treatment, significant changes in glucose metabolism or even complete shutoff of the neoplastic cell metabolism as a surrogate of tumor chemosensitivity assessment. In addition to cancer detection and staging, PET/CT imaging is becoming increasingly important as a quantitative monitor of individual response to therapy and an evaluation tool for new drug therapies. […] RECIST criteria, where response of tumors to therapy has traditionally assessed by measurement of changes in size/dimension of the tumors in CT images may not evidence early response to the therapy. Changes in size of tumors as a result of therapy may take a long period of time to develop. The most widely used parameter is the standardized uptake value (SUV) is defined as the maximal SUV value (SUVMAX) in the region of interest and reduction in SUVMAX is generally considered the most reliable indicator of the metabolic activity shutdown.\nas §1, §2, §3, §4\nData on 19 additional patients having leiomyosarcoma administered 4,4,4-trifluoro-N-[(1S)-2-[[(7S)-5-(2-hydroxyethyl)-6-oxo-7H-pyrido[2,3-d][3]benzazepin-7-yl]amino]-1-methyl-2-oxo-ethyl]butanamide hydrate in Part B of an ongoing clinical trial are presented in Table 3. Choi Response Criteria, were recorded for a limited number of patients and are not reported in Table 3, Choi et al, J Clin Oncol. 2007; 25:1753-1759."}, "[3]": {"experiment": "Atropisomer equilibrium in solution by 1H NMR and LC-MS", "assay_type": "physicochemical", "conditions": "ambient temperature, after 24 hours", "procedure": "In aqueous solutions, 8-9% of atropisomer 2 (minor atropisomer) is detected by ^1H NMR and LC-MS in equilibrium with atropisomer 1 (major atropisomer) at ambient temperature after 24 hours. In organic solvents, at ambient temperature after 24 hours, approximately 1-2% of atropisomer 2 is detected by ^1H NMR and LC-MS in equilibrium with atropisomer 1. Although detectable by ^1H NMR and LC-MS analysis, atropisomer 2 is not isolable."}, "[4]": {"conditions": "Patient 1, initial oral dose 100 mg T.I.W., cycle 1"}, "[5]": {"conditions": "first assigned dose 50 mg, individual LMS patients 8-22, Hydrate"}, "[6]": {"conditions": "first assigned dose 75 mg, individual LMS patients 4-7, Hydrate"}}, "note": "Several values for one entry are separate records, joined by “and”; a condition that tells them apart may be missing. Equal entries are not always repeated.", "data": [{"smiles": "C[C@H](NC(=O)CCC(F)(F)F)C(=O)N[C@@H]1C(=O)N(CCO)c2ncccc2-c2ccccc21", "note": "[4,4,4-Trifluoro-N-[(1S)-2-[[(7S)-5-(2-hydroxyethyl)-6-oxo-7H-pyrido[2,3-d][3]benzazepin-7-yl]amino]-1-methyl-2-oxo-ethyl]butanamide Hydrate]", "values": [{"measurement": "Overall Response DCE-US", "setting": "leiomyosarcoma tumor [1]; [4]", "result": "Confirmed"}, {"measurement": "Target Response", "setting": "leiomyosarcoma tumor [1]; [4]", "result": 90, "unit": "% necrosis"}, {"measurement": "Additional CT scan imaging after 1 cycle", "setting": "leiomyosarcoma tumor [1]; after 1 cycle (28 days), patients 1-3", "result": "confirmed necrosis in all three patients"}, {"measurement": "Necrosis of leiomyosarcoma tumor (CT scan of the liver, confirmed by DCE-US)", "setting": "leiomyosarcoma tumor [1]; patients 1 and 2, first week of treatment", "result": "significant necrosis"}, {"measurement": "Best Change in Tumor Size (%)", "setting": "leiomyosarcoma tumor [2]; [5]", "result": "13% and 60% and 37% and 19% and 20% and −13% and 33% and 24% and 23% and 50%"}, {"measurement": "PET/CT Scan (change in SUVmax %)", "setting": "leiomyosarcoma tumor [2]; [5]", "result": "−7% and 37% and −5% and −30% and 0% and −11% and 16%"}, {"measurement": "Best Change in Tumor Size (%)", "setting": "leiomyosarcoma tumor [2]; [6]", "result": "13% and 23% and 2%"}, {"measurement": "Best RECIST Response", "setting": "leiomyosarcoma tumor [2]; [6]", "result": "Unconfirmed PR"}, {"measurement": "PET/CT Scan (change in SUVmax %)", "setting": "leiomyosarcoma tumor [2]; [6]", "result": "−4% and 58% and 10% and 32%"}, {"measurement": "Clinical effect in leiomyosarcoma tumor patients (PET/CT SUVMAX data)", "setting": "leiomyosarcoma tumor [2]; summary of Table 3 data", "result": "beneficial clinical effect"}]}, {"smiles": "C[C@H](NC(=O)CCC(F)(F)F)C(=O)N[C@@H]1C(=O)N(CCO)c2ncccc2-c2ccccc21", "note": "[Compound 1, 4,4,4-trifluoro-N-[(1S)-2-[[(7S)-5-(2-hydroxyethyl)-6-oxo-7H-pyrido[2,3-d][3]benzazepin-7-yl]amino]-1-methyl-2-oxo-ethyl]butanamide]", "values": [{"measurement": "atropisomer 2 (minor atropisomer) detected in equilibrium with atropisomer 1", "setting": "[3]; aqueous solutions", "result": "8-9%"}, {"measurement": "atropisomer 2 detected in equilibrium with atropisomer 1", "setting": "[3]; organic solvents", "result": "1-2%"}]}]}
